Patent US20260256792A1, “TREATMENT OF CHRONIC SPONTANEOUS URTICARIA BY ADMINISTERING (R)-2-[3-[4-AMINO-3-(2-FLUORO-4-PHENOXY-PHENYL)PYRAZOLO[3,4-D]PYRIMIDIN-1-YL]PIPERIDINE-1-CARBONYL]-4-METHYL-4-[4-(OXETAN-3-YL)PIPERAZIN-1-YL]PENT-2-ENENITRILE” (priority 2023, published 2026)

Tests used:
[1] = test system: moderate-to-severe chronic spontaneous urticaria (CSU); test: Phase 2 CSU study: Patient Global Impression of Severity (PGIS); type: in vivo, human; settings: for PGIS Change from baseline Mean (SD) / PGIS Change from baseline Median / PGIS Median / PGIS Percent change from baseline Mean (SD) / PGIS Percent change from baseline Median / PGIS category Mild, patients / PGIS category Moderate, patients / PGIS category None, patients / PGIS category Severe, patients: omalizumab-naïve population; for PGIS % Change difference for rilzabrutinib vs. placebo LS Mean (95% CI) / PGIS % Change from baseline LS Mean (SE) / PGIS Change difference for rilzabrutinib vs. placebo LS Mean (95% CI) / PGIS Change from baseline LS Mean (SE): omalizumab-naïve, ANCOVA
Excerpt: The study comprises a 12 week, randomized, double-blind, placebo-controlled, multi-center, dose-ranging efficacy and safety phase, followed by a 40 week open label extension (OLE) phase (see FIG. 1).
The study consists of three phases and an optional OLE phase.
The PGIS is a 1-item measure that asks participants to provide a self-assessment of their overall CSU severity for the past week on a 4 point scale. Response choices are: “None”, “Mild”, “Moderate” and “Severe”. The PGIC is a 1-item measure that asks the participant to provide a self-assessment of overall change in their CSU since the participant started taking the study medication on a 7-point scale. The response options range from “Very Much Better” to “Very Much Worse.” Patients were to complete questionnaires for the 2 items during their site visit.

[2] = test system: 251 kinases sharing a common cysteine in their active site; settings: 1 μM; cited from earlier work

## CC(C)(C=C(C#N)C(=O)N1CCC[C@@H](n2nc(-c3ccc(Oc4ccccc4)cc3F)c3c(N)ncnc32)C1)N1CCN(C2COC2)CC1 [rilzabrutinib, (R)-2-[3-[4-amino-3-(2-fluoro-4-phenoxy-phenyl)pyrazolo[3,4-d]pyrimidin-1-yl]piperidine-1-carbonyl]-4-methyl-4-[4-(oxetan-3-yl)piperazin-1-yl]pent-2-enenitrile]
[1]; Week 8, 400 mg BID
  PGIS Change from baseline Mean (SD): −1.00
  PGIS Change from baseline Median: −1.00
  PGIS Median: 1.00
  PGIS Percent change from baseline Mean (SD): −44.95%
  PGIS Percent change from baseline Median: −50.00%
  PGIS category Mild, patients: 13 (39.4)
  PGIS category Moderate, patients: 7 (21.2)
  PGIS category None, patients: 9 (27.3)
  PGIS category Severe, patients: 4 (12.1)
  PGIS % Change difference for rilzabrutinib vs. placebo LS Mean (95% CI): −12.18 (−30.63, 6.27) %
  PGIS % Change from baseline LS Mean (SE): −46.44 (6.74) %
  PGIS Change difference for rilzabrutinib vs. placebo LS Mean (95% CI): −0.25 (−0.67, 0.16)
[1]; Week 8, 400 mg QPM
  PGIS Change from baseline Mean (SD): 0.67
  PGIS Change from baseline Median: −1.00
  PGIS Median: 2.00
  PGIS Percent change from baseline Mean (SD): −25.25%
  PGIS Percent change from baseline Median: −33.33%
  PGIS category Mild, patients: 10 (30.3)
  PGIS category Moderate, patients: 14 (42.4)
  PGIS category None, patients: 1 (3.0)
  PGIS category Severe, patients: 8 (24.2)
  PGIS % Change difference for rilzabrutinib vs. placebo LS Mean (95% CI): 9.27 (−9.09, 27.62) %
  PGIS % Change from baseline LS Mean (SE): −24.99 (6.69) %
  PGIS Change difference for rilzabrutinib vs. placebo LS Mean (95% CI): 0.24 (−0.17, 0.65)
  PGIS Change from baseline LS Mean (SE): −0.61 (0.15)
[1]; Week 8, 400 mg TID
  PGIS Change from baseline Mean (SD): −1.13
  PGIS Change from baseline Median: −1.00
  PGIS Median: 1.00
  PGIS Percent change from baseline Mean (SD): 47.22%
  PGIS Percent change from baseline Median: −50.00%
  PGIS category Mild, patients: 12 (40.0)
  PGIS category Moderate, patients: 8 (26.7)
  PGIS category None, patients: 6 (20.0)
  PGIS category Severe, patients: 4 (13.3)
  PGIS % Change difference for rilzabrutinib vs. placebo LS Mean (95% CI): −11.39 (−30.26, 7.48) %
  PGIS % Change from baseline LS Mean (SE): −45.65 (7.05) %
  PGIS Change difference for rilzabrutinib vs. placebo LS Mean (95% CI): −0.17 (−0.58, 0.25)
  PGIS Change from baseline LS Mean (SE): −1.02 (0.15)
[1]; Week 12, 400 mg BID
  PGIS Change from baseline Mean (SD): −1.03
  PGIS Change from baseline Median: −1.00
  PGIS Median: 1.00
  PGIS Percent change from baseline Mean (SD): −43.55%
  PGIS Percent change from baseline Median: −50.00%
  PGIS category Mild, patients: 6 (19.4)
  PGIS category Moderate, patients: 10 (32.3)
  PGIS category None, patients: 12 (38.7)
  PGIS category Severe, patients: 3 (9.7)
  PGIS % Change difference for rilzabrutinib vs. placebo LS Mean (95% CI): −13.46 (−33.69, 6.76) %
  PGIS % Change from baseline LS Mean (SE): −45.76 (7.46) %
  PGIS Change difference for rilzabrutinib vs. placebo LS Mean (95% CI): −0.34 (−0.77, 0.10)
  PGIS Change from baseline LS Mean (SE): −1.14 (0.16)
[1]; Week 12, 400 mg QPM
  PGIS Change from baseline Mean (SD): −0.68
  PGIS Change from baseline Median: −1.00
  PGIS Median: 2.00
  PGIS Percent change from baseline Mean (SD): −27.45%
  PGIS Percent change from baseline Median: −33.33%
  PGIS category Mild, patients: 10 (29.4)
  PGIS category Moderate, patients: 15 (44.1)
  PGIS category None, patients: 1 (2.9)
  PGIS category Severe, patients: 8 (23.5)
  PGIS % Change difference for rilzabrutinib vs. placebo LS Mean (95% CI): 5.87 (−13.65, 25.38) %
  PGIS % Change from baseline LS Mean (SE): −26.42 (7.16) %
  PGIS Change difference for rilzabrutinib vs. placebo LS Mean (95% CI): 0.21 (−0.22, 0.63)
  PGIS Change from baseline LS Mean (SE): −0.59 (0.15)
[1]; Week 12, 400 mg TID
  PGIS Change from baseline Mean (SD): −1.17
  PGIS Change from baseline Median: −1.00
  PGIS Median: 1.00
  PGIS Percent change from baseline Mean (SD): −47.22%
  PGIS Percent change from baseline Median: −50.00%
  PGIS category Mild, patients: 13 (43.3)
  PGIS category Moderate, patients: 8 (26.7)
  PGIS category None, patients: 6 (20.0)
  PGIS category Severe, patients: 3 (10.0)
  PGIS % Change difference for rilzabrutinib vs. placebo LS Mean (95% CI): −12.67 (−32.97, 7.63) %
  PGIS % Change from baseline LS Mean (SE): −44.96 (7.44) %
  PGIS Change difference for rilzabrutinib vs. placebo LS Mean (95% CI): −0.24 (−0.67, 0.19)
  PGIS Change from baseline LS Mean (SE): −1.04 (0.16)
[2]
  number of kinases inhibited (>90% inhibition) of 251 kinases: 6
